Key:
[1] = target: T1, HiBit-BRG1 fusion protein (Homo sapiens, UniProt P51532); test: HiBiT-BRG1 cell-based degradation assay (Nano-Glo HiBiT Lytic Detection, 24 h); conditions: HeLa cells expressing HiBit-BRG1 and LgBit; for DC50: read-out: BRG1 HiBit Degradation IC50; for Dmax: HeLa, top dose 30 μM, read-out: BRG1 HiBit Degradation Maximum measured
T1 construct: expressed in transfected cells
Method in brief: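 Degradation is scaled from DMSO-treated cells (0%) to cells given 2 μM of a known BRM/BRG1 degrader (100%). HeLa cells stably carrying HiBiT-BRG1 plus LgBiT (5000/well) were lysed with Nano-Glo HiBiT detection reagent, shaken 10 min at RT, and luminescence read.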

[2] = target: T2, HiBit-BRM fusion protein (Homo sapiens, UniProt P51531); test: HiBiT-BRM cell-based degradation assay (Nano-Glo HiBiT Lytic Detection, 24 h); conditions: HeLa cells expressing HiBiT-BRM; for DC50: read-out: BRM HiBit Degradation IC50; for BRM HiBit Degradation Maximum measured: top dose 30 μM
T2 construct: expressed in transfected cells
T2 sequence (P51531 whole entry, the tested form may be a part): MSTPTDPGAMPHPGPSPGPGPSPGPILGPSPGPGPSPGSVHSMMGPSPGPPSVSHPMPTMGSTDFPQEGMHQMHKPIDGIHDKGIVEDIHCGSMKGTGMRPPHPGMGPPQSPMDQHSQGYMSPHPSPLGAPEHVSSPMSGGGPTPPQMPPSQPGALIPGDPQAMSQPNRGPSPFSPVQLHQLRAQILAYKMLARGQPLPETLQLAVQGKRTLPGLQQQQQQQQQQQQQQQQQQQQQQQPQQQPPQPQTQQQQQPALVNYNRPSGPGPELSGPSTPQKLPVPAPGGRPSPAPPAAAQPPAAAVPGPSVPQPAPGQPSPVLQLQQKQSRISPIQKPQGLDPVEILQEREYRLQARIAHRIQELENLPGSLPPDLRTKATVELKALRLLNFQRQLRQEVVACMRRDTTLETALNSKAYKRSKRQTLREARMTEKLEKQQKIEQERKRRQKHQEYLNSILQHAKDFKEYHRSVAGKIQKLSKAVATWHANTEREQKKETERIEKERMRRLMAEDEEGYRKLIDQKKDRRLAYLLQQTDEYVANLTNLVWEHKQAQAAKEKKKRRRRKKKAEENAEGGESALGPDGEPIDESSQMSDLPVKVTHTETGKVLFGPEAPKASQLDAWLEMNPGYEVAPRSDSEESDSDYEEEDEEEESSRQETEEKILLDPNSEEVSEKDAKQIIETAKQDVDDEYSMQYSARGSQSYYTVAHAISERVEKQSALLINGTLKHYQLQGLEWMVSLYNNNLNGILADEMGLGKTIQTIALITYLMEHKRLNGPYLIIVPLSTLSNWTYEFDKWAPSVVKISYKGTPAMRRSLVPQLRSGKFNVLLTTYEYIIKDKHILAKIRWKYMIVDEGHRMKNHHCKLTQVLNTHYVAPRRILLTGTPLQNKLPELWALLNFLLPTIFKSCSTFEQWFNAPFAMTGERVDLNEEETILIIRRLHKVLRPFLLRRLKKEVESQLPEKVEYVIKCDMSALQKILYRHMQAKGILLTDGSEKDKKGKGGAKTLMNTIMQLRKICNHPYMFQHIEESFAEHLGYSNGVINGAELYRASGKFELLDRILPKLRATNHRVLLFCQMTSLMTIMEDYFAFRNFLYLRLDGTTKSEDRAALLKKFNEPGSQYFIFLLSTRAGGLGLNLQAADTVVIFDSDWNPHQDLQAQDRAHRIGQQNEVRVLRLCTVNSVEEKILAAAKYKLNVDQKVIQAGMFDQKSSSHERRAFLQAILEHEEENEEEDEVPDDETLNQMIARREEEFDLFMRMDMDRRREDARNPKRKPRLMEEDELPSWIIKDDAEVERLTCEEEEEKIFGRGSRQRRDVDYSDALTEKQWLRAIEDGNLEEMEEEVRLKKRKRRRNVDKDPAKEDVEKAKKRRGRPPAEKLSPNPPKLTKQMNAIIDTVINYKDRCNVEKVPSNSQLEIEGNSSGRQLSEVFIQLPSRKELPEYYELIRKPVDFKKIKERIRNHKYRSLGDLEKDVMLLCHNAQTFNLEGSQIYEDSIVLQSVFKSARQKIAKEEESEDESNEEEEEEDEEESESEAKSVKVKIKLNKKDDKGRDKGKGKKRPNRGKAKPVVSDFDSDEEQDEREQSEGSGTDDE
Method in brief: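 Residual HiBiT-BRM in a stable HeLa line was measured by Nano-Glo lytic luminescence after 24 h compound exposure (top final dose 30 μM, 3-fold, 10 points, duplicate). Values are % degradation, scaled between DMSO-treated cells and cells given 2 μM of a known BRM/BRG1 degrader.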

T1 sequence (P51532 whole entry, the tested form may be a part): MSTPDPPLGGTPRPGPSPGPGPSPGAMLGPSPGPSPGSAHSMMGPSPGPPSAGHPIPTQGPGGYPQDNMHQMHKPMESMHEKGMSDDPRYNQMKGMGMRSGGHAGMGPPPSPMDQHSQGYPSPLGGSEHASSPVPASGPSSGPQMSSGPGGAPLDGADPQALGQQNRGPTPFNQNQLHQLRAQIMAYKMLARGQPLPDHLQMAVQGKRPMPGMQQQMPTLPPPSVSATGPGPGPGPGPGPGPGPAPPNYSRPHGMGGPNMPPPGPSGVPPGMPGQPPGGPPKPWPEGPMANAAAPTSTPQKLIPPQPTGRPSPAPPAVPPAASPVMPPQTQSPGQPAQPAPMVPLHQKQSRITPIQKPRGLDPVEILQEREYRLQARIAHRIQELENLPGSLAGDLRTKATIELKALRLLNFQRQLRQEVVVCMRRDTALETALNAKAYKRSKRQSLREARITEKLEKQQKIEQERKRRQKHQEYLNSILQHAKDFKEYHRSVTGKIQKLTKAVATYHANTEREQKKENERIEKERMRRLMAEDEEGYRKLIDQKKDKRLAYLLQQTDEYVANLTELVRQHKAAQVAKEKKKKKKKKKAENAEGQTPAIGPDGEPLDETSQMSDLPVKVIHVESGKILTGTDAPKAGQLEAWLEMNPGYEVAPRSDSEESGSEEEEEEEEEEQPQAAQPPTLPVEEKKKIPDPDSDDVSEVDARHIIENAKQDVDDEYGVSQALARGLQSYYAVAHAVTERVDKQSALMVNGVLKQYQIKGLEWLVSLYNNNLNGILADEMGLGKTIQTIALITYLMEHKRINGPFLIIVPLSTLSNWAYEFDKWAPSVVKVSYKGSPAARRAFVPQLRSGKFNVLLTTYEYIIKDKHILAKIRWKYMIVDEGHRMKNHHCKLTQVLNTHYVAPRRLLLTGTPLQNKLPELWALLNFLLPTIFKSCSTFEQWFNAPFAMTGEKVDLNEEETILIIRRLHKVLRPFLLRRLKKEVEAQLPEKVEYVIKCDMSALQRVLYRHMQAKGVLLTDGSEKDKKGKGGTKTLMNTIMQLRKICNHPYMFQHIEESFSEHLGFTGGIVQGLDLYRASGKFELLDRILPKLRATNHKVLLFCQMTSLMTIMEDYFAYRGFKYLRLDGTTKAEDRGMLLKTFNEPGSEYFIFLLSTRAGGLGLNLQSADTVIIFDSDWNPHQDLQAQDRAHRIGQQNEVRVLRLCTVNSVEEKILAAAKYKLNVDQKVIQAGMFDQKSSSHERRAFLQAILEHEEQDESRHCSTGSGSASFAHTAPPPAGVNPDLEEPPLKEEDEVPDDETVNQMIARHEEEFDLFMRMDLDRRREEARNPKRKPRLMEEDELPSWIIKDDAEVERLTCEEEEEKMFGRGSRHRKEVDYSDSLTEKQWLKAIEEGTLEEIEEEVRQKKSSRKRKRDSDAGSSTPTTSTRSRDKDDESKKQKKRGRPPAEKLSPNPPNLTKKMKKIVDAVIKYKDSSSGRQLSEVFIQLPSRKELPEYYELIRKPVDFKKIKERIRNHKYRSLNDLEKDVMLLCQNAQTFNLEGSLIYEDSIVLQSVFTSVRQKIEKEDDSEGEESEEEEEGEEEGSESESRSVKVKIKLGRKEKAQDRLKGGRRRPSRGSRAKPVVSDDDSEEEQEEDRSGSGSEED

| SMILES | DC50 [1] [µM] | Dmax [1] [%] | DC50 [2] [µM] | BRM HiBit Degradation Maximum measured [2] |
| --- | --- | --- | --- | --- |
| Cc1ncsc1-c1ccc(CNC(=O)[C@@H]2C[C@@H](O)CN2C(=O)[C@@H](NC(=O)CCCCCC(=O)N2CCN(c3cc(-c4cccc(-c5csc(NC(=O)CNC(=O)c6ccn(S(C)(=O)=O)c6)n5)c4)ccn3)CC2)C(C)(C)C)cc1 [Compound 86, N-(2-((4-(3-(2-(4-(7-(((S)-1-((2S,4R)-4-hydroxy-2-((4-(4-methylthiazol-5-yl)benzyl)carbamoyl)pyrrolidin-1-yl)-3,3-dimethyl-1-oxobutan-2-yl)amino)-7-oxoheptanoyl)piperazin-1-yl)pyridin-4-yl)phenyl)thiazol-2-yl)amino)-2-oxoethyl)-1-(methylsulfonyl)-1H-pyrrole-3-carboxamide] | 0.1 to 1 | 50 to 75 | 0.1 to 1 | B (‘B’ = Maximum degradation ≥50% and ≤75%) |
| Cc1ncsc1-c1ccc(CNC(=O)[C@@H]2C[C@@H](O)CN2C(=O)[C@@H](NC(=O)CCCCCNC(=O)CN(C)c2cc(-c3cccc(-c4csc(NC(=O)CNC(=O)c5ccn(S(C)(=O)=O)c5)n4)c3)ccn2)C(C)(C)C)cc1 [Compound 87] | > 10 | < 50 | > 10 | C (‘C’ = Maximum degradation <50%) |
| Cc1ncsc1-c1ccc(CNC(=O)[C@@H]2C[C@@H](O)CN2C(=O)[C@@H](NC(=O)CCCCCCCNC(=O)CN(C)c2cc(-c3cccc(-c4csc(NC(=O)CNC(=O)c5ccn(S(C)(=O)=O)c5)n4)c3)ccn2)C(C)(C)C)cc1 [Compound 88] | < 0.1 | 50 to 75 | < 0.1 | B (‘B’ = Maximum degradation ≥50% and ≤75%) |
| Cc1ncsc1-c1ccc(CNC(=O)[C@@H]2CC(O)CN2C(=O)[C@@H](NC(=O)COCCOCCOCCNC(=O)CN(C)c2cc(-c3cccc(-c4csc(NC(=O)CNC(=O)c5ccn(S(C)(=O)=O)c5)n4)c3)ccn2)C(C)(C)C)cc1 (stereo partly drawn) [Compound 89] | > 10 | < 50 | > 10 | C (‘C’ = Maximum degradation <50%) |
| Cc1c(C(=O)NCC(=O)Nc2nc(-c3cccc(-c4ccnc(N(C)CC(=O)NCCOCCOCCNc5cccc6c5C(=O)N(C5CCC(=O)NC5=O)C6=O)c4)c3)cs2)cn(S(=O)(=O)C(C)C)c1C (stereo not drawn) [Compound 90, N-[2-[[4-[3-[2-[[2-[2-[2-[2-[[2-(2,6-dioxo-3-piperidyl)-1,3-dioxo-isoindolin-4-yl]amino]ethoxy]ethoxy]ethylamino]-2-oxo-ethyl]-methyl-amino]-4-pyridyl]phenyl]thiazol-2-yl]amino]-2-oxo-ethyl]-1-isopropylsulfonyl-4,5-dimethyl-pyrrole-3-carboxamide] | > 10 | < 50 | > 10 | C (‘C’ = Maximum degradation <50%) |
| Cc1c(C(=O)NCC(=O)Nc2nc(-c3cccc(-c4ccnc(N(C)CC(=O)NCCCCCNc5cccc6c5C(=O)N(C5CCC(=O)NC5=O)C6=O)c4)c3)cs2)cn(S(=O)(=O)C(C)C)c1C (stereo not drawn) [Compound 91, N-[2-[[4-[3-[2-[[2-[5-[[2-(2,6-dioxo-3-piperidyl)-1,3-dioxo-isoindolin-4-yl]amino]pentylamino]-2-oxo-ethyl]-methyl-amino]-4-pyridyl]phenyl]thiazol-2-yl]amino]-2-oxo-ethyl]-1-isopropylsulfonyl-4,5-dimethyl-pyrrole-3-carboxamide] | > 10 | < 50 | > 10 | C (‘C’ = Maximum degradation <50%) |
| CN(CC(=O)NCCCCCCCCNc1ccc2c(c1)C(=O)N(C1CCC(=O)NC1=O)C2=O)c1cc(-c2cccc(-c3csc(NC(=O)CNC(=O)c4ccn(S(C)(=O)=O)c4)n3)c2)ccn1 (stereo not drawn) [Compound 92] | > 10 | < 50 | > 10 | C (‘C’ = Maximum degradation <50%) |
| CN(CC(=O)NCCOCCOCCNc1ccc2c(c1)C(=O)N(C1CCC(=O)NC1=O)C2=O)c1cc(-c2cccc(-c3csc(NC(=O)CNC(=O)c4ccn(S(C)(=O)=O)c4)n3)c2)ccn1 (stereo not drawn) [Compound 93] | > 10 | < 50 | > 10 | C (‘C’ = Maximum degradation <50%) |
| Cc1ncsc1-c1ccc(CNC(=O)[C@@H]2C[C@@H](O)CN2C(=O)[C@@H](NC(=O)COCCOCCNC(=O)CN(C)c2cc(-c3cccc(-c4csc(NC(=O)CNC(=O)c5ccn(S(C)(=O)=O)c5)n4)c3)ccn2)C(C)(C)C)cc1 [Compound 94, N-(2-((4-(3-(2-(((S)-13-((2S,4R)-4-hydroxy-2-((4-(4-methylthiazol-5-yl)benzyl)carbamoyl)pyrrolidine-1-carbonyl)-14,14-dimethyl-2,11-dioxo-6,9-dioxa-3,12-diazapentadecyl)(methyl)amino)-pyridin-4-yl)phenyl)thiazol-2-yl)amino)-2-oxoethyl)-1-(methylsulfonyl)-1H-pyrrole-3-carboxamide] | > 10 | < 50 | > 10 | C (‘C’ = Maximum degradation <50%) |
| CN(CCNC(=O)C1(c2cc(-c3cccc(-c4csc(NC(=O)CNC(=O)c5ccn(S(C)(=O)=O)c5)n4)c3)ccn2)CC1)CCNc1cccc2c1C(=O)N(C1CCC(=O)NC1=O)C2=O (stereo not drawn) [Compound 97, N-[2-[[4-[3-[2-[1-[2-[2-[[2-(2,6-dioxo-3-piperidyl)-1,3-dioxoisoindolin-4-yl]amino]ethyl-methyl-amino]ethylcarbamoyl]cyclopropyl]-4-pyridyl]phenyl]thiazol-2-yl]amino]-2-oxo-ethyl]-1-methylsulfonyl-pyrrole-3-carboxamide] | > 10 | < 50 | > 10 | C (‘C’ = Maximum degradation <50%) |
| CS(=O)(=O)n1ccc(C(=O)NCC(=O)Nc2nc(-c3cccc(-c4ccnc(C5(C(=O)NCCOCCOCCNc6ccc7c(c6)C(=O)N(C6CCC(=O)NC6=O)C7=O)CC5)c4)c3)cs2)c1 (stereo not drawn) [Compound 101, N-[2-[[4-[3-[2-[1-[2-[2-[2-[[2-(2,6-dioxo-3-piperidyl)-1,3-dioxo-isoindolin-5-yl]amino]ethoxy]ethoxy]ethylcarbamoyl]-cyclopropyl]-4-pyridyl]phenyl]thiazol-2-yl]amino]-2-oxo-ethyl]-1-methylsulfonylpyrrole-3-carboxamide] | > 10 | < 50 | > 10 | C (‘C’ = Maximum degradation <50%) |
| CS(=O)(=O)n1ccc(C(=O)NCC(=O)Nc2nc(-c3cccc(-c4ccnc(C5(C(=O)NCCS(=O)(=O)CCNc6cccc7c6C(=O)N(C6CCC(=O)NC6=O)C7=O)CC5)c4)c3)cs2)c1 (stereo not drawn) [Compound 102, N-[2-[[4-[3-[2-[1-[2-[2-[[2-(2,6-dioxo-3-piperidyl)-1,3-dioxo-isoindolin-4-yl]amino]ethylsulfonyl]ethylcarbamoyl]-cyclopropyl]-4-pyridyl]phenyl]thiazol-2-yl]amino]-2-oxo-ethyl]-1-methylsulfonylpyrrole-3-carboxamide] | 0.1 to 1 | 50 to 75 | > 10 | C (‘C’ = Maximum degradation <50%) |

Other lines, results leading:

| DC50 [1] [µM] | Dmax [1] [%] | DC50 [2] [µM] | BRM HiBit Degradation Maximum measured [2] | SMILES |
| --- | --- | --- | --- | --- |
| < 0.1 | > 75 | < 0.1 | A (‘A’ = Maximum degradation >75%) | Cc1ncsc1-c1ccc(CNC(=O)[C@@H]2C[C@@H](O)CN2C(=O)[C@@H](NC(=O)CCCCCCCCCNC(=O)C2(c3cc(-c4cccc(-c5csc(NC(=O)CNC(=O)c6ccn(S(C)(=O)=O)c6)n5)c4)ccn3)CC2)C(C)(C)C)cc1 [Compound 98, N-(2-((4-(3-(2-(1-((10-(((S)-1-((2S,4R)-4-hydroxy-2-((4-(4-methylthiazol-5-yl)benzyl)carbamoyl)pyrrolidin-1-yl)-3,3-dimethyl-1-oxobutan-2-yl)amino)-10-oxodecyl)carbamoyl)cyclopropyl)-pyridin-4-yl)phenyl)thiazol-2-yl)amino)-2-oxoethyl)-1-(methylsulfonyl)-1H-pyrrole-3-carboxamide] |
| < 0.1 | > 75 | < 0.1 | A (‘A’ = Maximum degradation >75%) | Cc1ncsc1-c1ccc(CNC(=O)[C@@H]2C[C@@H](O)CN2C(=O)[C@@H](NC(=O)CCCCCCCNC(=O)C2(c3cc(-c4cccc(-c5csc(NC(=O)CNC(=O)c6ccn(S(C)(=O)=O)c6)n5)c4)ccn3)CC2)C(C)(C)C)cc1 [Compound 99, N-(2-((4-(3-(2-(1-((8-(((S)-1-((2S,4R)-4-hydroxy-2-((4-(4-methylthiazol-5-yl)benzyl)carbamoyl)pyrrolidin-1-yl)-3,3-dimethyl-1-oxobutan-2-yl)amino)-8-oxooctyl)carbamoyl)cyclopropyl)-pyridin-4-yl)phenyl)thiazol-2-yl)amino)-2-oxoethyl)-1-(methylsulfonyl)-1H-pyrrole-3-carboxamide] |
| < 0.1 | > 75 | 0.1 to 1 | A (‘A’ = Maximum degradation >75%) | Cc1ncsc1-c1ccc(CNC(=O)[C@@H]2C[C@@H](O)CN2C(=O)[C@@H](NC(=O)CCCCCNC(=O)C2(c3cc(-c4cccc(-c5csc(NC(=O)CNC(=O)c6ccn(S(C)(=O)=O)c6)n5)c4)ccn3)CC2)C(C)(C)C)cc1 [Compound 100, N-(2-((4-(3-(2-(1-((6-(((S)-1-((2S,4R)-4-hydroxy-2-((4-(4-methylthiazol-5-yl)benzyl)carbamoyl)pyrrolidin-1-yl)-3,3-dimethyl-1-oxobutan-2-yl)amino)-6-oxohexyl)carbamoyl)cyclopropyl)-pyridin-4-yl)phenyl)thiazol-2-yl)amino)-2-oxoethyl)-1-(methylsulfonyl)-1H-pyrrole-3-carboxamide] |
